For orientation: solubility means the dissolved amount per volume that the medium holds. In general, inhibition refers to the change of the read-out against control, counted positive when it falls. By IC50 is commonly meant the concentration needed to halve the response being measured.

Here are results for two compounds from patent US10294227B2, “Compounds” (UNIVERSITY COURT OF THE UNIVERSITY OF EDINBURGH, priority 2015, dated 2019).

For data set [1] the following is noted: PBS, aqueous buffer.
The next data set deals with CYP1A2 (Homo sapiens (Human), UniProt P05177). The data set is described as follows: CYP P450 inhibition.
Another data set addresses CYP3A4 (Homo sapiens (Human), UniProt P08684). The data set is described as follows: CYP P450 inhibition.
A further data set has as its target CYP2C9 (Homo sapiens (Human), UniProt P11712). Nature of the data set: CYP P450 inhibition.
The target of the next data set is CYP2D6 (Homo sapiens (Human), UniProt P10635). Nature of the data set: CYP P450 inhibition.
CYP2D6, sequence (P10635 whole entry): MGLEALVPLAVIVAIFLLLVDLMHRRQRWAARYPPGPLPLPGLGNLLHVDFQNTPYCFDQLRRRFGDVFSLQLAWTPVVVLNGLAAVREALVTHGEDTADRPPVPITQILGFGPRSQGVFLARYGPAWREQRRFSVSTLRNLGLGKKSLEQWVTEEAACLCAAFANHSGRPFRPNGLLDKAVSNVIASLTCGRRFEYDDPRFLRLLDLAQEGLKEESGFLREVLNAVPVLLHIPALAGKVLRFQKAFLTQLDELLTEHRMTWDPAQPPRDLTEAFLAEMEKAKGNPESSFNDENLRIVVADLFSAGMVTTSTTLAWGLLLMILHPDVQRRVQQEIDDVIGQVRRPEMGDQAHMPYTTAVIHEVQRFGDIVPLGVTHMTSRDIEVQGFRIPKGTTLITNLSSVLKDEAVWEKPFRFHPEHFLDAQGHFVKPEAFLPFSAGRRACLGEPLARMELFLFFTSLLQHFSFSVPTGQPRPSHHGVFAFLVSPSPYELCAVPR
The target of the next data set is CYP2C19 (Homo sapiens (Human), UniProt P33261). The data set is described as follows: CYP P450 inhibition.
CYP2C19, sequence (P33261 whole entry): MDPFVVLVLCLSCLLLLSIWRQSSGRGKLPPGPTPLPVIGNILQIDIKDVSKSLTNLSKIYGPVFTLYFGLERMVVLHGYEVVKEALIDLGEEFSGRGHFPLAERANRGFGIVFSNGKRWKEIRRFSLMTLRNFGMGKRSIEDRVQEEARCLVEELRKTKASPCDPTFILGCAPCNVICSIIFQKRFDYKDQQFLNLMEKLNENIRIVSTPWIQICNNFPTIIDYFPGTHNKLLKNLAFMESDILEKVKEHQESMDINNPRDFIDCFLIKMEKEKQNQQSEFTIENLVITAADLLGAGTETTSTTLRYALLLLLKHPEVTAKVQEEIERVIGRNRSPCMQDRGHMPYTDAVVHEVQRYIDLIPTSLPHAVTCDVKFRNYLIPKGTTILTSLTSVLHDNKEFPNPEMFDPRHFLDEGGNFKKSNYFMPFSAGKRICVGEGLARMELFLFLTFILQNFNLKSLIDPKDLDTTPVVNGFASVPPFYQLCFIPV
A further data set deals with KIT (Homo sapiens (Human), UniProt P10721). Nature of the data set: Kinase screening assay (IC50).
KIT, sequence (P10721 26-976): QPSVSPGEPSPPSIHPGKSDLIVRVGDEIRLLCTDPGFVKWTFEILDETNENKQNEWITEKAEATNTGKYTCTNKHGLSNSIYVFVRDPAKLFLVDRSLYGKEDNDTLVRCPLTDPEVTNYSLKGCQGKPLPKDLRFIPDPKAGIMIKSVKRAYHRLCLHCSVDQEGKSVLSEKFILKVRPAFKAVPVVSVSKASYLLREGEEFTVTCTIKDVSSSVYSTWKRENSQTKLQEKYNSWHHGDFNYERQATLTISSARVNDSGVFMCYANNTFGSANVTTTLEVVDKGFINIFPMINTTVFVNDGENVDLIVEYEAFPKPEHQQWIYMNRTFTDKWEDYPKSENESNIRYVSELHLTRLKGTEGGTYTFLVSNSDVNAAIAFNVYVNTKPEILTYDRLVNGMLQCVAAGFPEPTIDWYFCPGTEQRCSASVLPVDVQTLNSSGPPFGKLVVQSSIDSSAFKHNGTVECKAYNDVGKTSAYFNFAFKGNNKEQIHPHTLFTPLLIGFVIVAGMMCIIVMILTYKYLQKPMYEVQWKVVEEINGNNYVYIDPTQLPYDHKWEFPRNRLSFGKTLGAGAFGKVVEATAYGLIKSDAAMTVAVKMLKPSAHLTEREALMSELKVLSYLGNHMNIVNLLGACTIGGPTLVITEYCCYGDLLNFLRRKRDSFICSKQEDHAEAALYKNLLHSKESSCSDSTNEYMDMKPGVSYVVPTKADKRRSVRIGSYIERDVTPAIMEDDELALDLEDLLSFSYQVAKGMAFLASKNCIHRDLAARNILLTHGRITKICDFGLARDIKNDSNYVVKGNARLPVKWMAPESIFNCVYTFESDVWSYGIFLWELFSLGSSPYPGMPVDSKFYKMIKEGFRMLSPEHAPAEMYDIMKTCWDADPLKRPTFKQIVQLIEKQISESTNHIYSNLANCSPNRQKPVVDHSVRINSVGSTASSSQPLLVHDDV
In a further data set the target is RET (Homo sapiens (Human), UniProt P07949). Nature of the data set: Kinase screening assay (IC50).
RET, sequence (P07949 29-1114): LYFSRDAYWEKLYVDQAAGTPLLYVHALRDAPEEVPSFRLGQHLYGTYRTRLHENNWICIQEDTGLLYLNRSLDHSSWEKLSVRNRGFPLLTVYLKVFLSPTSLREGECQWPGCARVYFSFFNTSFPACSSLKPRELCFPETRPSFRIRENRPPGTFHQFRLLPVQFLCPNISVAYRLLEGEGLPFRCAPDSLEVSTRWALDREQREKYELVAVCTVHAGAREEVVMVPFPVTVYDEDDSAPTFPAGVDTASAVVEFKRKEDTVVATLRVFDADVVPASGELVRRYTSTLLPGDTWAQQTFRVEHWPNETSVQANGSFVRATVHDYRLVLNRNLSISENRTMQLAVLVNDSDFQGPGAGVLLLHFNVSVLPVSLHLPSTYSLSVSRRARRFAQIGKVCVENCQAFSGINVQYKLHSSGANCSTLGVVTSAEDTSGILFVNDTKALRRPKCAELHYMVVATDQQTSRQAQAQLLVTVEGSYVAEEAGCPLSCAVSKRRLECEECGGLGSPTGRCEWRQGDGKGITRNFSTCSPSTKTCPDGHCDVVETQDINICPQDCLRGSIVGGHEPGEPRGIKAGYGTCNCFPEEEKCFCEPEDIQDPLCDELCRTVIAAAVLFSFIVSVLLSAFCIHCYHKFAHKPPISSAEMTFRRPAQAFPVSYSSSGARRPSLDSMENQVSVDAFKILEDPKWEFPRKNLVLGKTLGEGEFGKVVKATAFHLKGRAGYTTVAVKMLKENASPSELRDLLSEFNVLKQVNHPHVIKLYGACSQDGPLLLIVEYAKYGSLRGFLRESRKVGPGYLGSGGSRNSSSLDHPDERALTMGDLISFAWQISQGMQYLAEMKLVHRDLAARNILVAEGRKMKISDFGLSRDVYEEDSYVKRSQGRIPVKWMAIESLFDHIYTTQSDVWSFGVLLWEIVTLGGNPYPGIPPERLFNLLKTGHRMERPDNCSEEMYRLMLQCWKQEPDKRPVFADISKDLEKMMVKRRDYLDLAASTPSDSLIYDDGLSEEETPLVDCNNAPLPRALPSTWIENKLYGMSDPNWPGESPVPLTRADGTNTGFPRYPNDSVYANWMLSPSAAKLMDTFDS
The next data set deals with hERG channel (Homo sapiens (Human), UniProt Q12809). Nature of the data set: hERG Safety Assay, Ionworks high-throughput electrophysiology. A general note: hERG is a cardiac potassium channel; its block is linked to QT prolongation.
hERG channel, sequence (Q12809 whole entry): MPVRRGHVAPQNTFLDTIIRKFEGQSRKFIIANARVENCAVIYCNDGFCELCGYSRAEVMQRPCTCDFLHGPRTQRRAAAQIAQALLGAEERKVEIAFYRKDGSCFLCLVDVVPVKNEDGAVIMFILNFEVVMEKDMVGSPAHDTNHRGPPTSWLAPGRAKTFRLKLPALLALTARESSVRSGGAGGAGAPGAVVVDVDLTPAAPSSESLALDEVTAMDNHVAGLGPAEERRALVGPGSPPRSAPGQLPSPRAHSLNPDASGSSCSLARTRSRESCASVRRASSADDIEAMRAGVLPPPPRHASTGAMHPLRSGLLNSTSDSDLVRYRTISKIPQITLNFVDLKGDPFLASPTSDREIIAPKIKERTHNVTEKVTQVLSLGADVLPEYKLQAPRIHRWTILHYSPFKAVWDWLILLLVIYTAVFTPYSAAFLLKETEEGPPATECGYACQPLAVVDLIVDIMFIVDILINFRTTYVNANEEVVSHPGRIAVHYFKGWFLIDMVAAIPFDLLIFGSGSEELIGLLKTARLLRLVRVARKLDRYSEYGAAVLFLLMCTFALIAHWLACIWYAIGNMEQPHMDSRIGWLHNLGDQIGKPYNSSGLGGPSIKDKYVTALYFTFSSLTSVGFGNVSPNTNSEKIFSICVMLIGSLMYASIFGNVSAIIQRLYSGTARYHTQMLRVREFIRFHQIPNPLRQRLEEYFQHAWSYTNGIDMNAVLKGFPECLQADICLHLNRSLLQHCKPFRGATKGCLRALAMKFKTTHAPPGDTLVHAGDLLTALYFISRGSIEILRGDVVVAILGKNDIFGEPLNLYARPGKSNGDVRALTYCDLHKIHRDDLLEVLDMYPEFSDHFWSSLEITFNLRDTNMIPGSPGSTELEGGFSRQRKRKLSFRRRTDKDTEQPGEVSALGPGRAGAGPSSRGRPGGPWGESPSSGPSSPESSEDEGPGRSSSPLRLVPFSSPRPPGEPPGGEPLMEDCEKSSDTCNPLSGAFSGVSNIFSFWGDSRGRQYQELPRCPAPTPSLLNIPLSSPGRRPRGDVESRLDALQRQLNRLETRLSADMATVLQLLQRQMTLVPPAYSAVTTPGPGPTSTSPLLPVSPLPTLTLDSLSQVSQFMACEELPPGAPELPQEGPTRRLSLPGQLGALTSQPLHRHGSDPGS
A further data set concerns MCF7 cells. The data set is described as follows: Cell viability assay (PrestoBlue). It is filed as cell-based. The note with it: Homo sapiens, MCF7, 120 h; cell viability at day 5; read-out: Antiproliferative activity (EC50) MCF7.
For data set [2], the system named is SYF fibroblasts (deficient for Src, Yes, and Fyn). Nature of the data set: Cell viability assay (PrestoBlue). The data set is classed as cell-based, murine. Particulars: Mus musculus, Fibroblast, 120 h; cell viability at day 5; read-out: Antiproliferative activity (EC50) SYF (−/− Src).
The target in data set [3] is selection of recombinant kinases. The data set is described as follows: Kinase screening assay, panel summary. The note with it: 15 kinases of Table 2. The data set is classed as biochemical, human.

Where two headings read alike, the source gives them in different places.

CYP2C9, sequence (P11712 whole entry): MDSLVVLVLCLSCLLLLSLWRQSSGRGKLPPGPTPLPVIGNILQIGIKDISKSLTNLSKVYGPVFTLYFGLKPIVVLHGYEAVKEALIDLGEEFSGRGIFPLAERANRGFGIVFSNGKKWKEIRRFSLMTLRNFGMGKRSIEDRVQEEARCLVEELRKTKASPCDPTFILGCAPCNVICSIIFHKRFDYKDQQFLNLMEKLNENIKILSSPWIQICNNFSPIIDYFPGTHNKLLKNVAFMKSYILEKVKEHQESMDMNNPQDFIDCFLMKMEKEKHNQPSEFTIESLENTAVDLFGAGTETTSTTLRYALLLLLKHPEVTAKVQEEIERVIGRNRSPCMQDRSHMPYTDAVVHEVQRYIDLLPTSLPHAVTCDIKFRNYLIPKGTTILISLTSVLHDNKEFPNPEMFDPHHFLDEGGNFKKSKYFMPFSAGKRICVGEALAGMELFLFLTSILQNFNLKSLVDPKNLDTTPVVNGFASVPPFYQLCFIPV

For the compound `COc1cc(-c2nn(CCN3CCC(N(C)C)CC3)c3ncnc(N)c23)ccc1NC(=O)OC(C)(C)C` [Compound 506, tert-butyl N-[4-[4-amino-1-[2-[4-(dimethylamino)-1-piperidyl]ethyl]pyrazolo[3,4-d]pyrimidin-3-yl]-2-methoxy-phenyl]carbamate], in data set [1], the solubility is above 100 mg/mL. For the same compound, the inhibition at 10 µM was 24.6% against CYP1A2; -74.6% on CYP3A4; -23.1% on CYP2C9; 31.8% on CYP2D6; -5.4% against CYP2C19. For the same compound, the IC50 against KIT is 5.13 µM; at KIT (read-out: Kinase Screening (IC50) c-KIT), above 1 µM; on KIT (read-out: Target inhibition (IC50) KIT, 10 μM ATP) it was above 1 µM; against RET it was above 10000 nM; at RET (read-out: Kinase Screening (IC50) RET), above 1000 nM; at RET (read-out: Target inhibition (IC50) RET, 10 μM ATP), above 1000 nM. At hERG channel, this compound yielded an IC50 of 18.2 µM.

For `CN(C)C1CCN(CCn2nc(-c3ccc(CC(=O)O)cc3)c3c(N)ncnc32)CC1` [Compound 556, 2-[4-[4-amino-1-[2-[4-(dimethylamino)-1-piperidyl]ethyl]pyrazolo[3,4-d]pyrimidin-3-yl]phenyl]acetic acid], the EC50 (with MCF7 cells; in data set [2]) was above 10 µM throughout. The “Target inhibition (IC50), remark on the whole panel” value in data set [3] was “No inhibition found”.
